Assay results: paper PMC12362618, “Development of the First Small-Molecule Inhibitor Targeting Oncostatin M for Treatment of Breast Cancer” (Journal of Medicinal Chemistry, 2025)
Entries after “also recorded” stand apart in the source; their conditions may differ.

Experiments:
[1] = molecular target: T1, OSM (Homo sapiens, UniProt P13725); experiment: Fluorescence quenching assay of SMI binding to OSM; conditions: average of three independent replicates, errors at 95% confidence level, read-out: KD (OSM-SMI dissociation constant)
T1 sequence (P13725 26-252): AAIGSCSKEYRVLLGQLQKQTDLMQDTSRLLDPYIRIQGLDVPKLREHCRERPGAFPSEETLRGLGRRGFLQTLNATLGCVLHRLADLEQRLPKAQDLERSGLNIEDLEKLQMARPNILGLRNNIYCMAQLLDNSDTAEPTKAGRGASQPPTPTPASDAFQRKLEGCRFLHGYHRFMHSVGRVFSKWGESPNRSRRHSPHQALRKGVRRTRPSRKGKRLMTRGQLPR
Description: To perform fluorescence quenching assays, 2 mL of 1 μM OSM solution in polymethylmethacrylate cuvettes was prepared by dilution of a concentrated stock solution of recombinant OSM with buffer solution (100 mM sodium chloride, 50 mM sodium phosphate, 50 mM freshly added DTT, pH = 6.6). Cuvettes were titrated with 5 μL increments of a 1 mM small molecule stock solution in DMSO, with a cuvette titrated with an equivalent volume of DMSO as a control. […] In cases where little to no significant quenching was observed, the titration was supplemented with 2.5 μL increments of a 10 mM small molecule stock solution to increase the concentration delivered. The fluorescence intensity measurements were obtained on a Cary Eclipse spectrofluorometer equipped with a Xenon arc lamp. Fluorescence intensities were measured by exciting at 280 nm (4 nm slit width) and recording the emission from 345 to 355 nm with a photomultiplier tube voltage of 700 V, unless otherwise noted. Each titration point was normalized to OSM’s native fluorescence intensity, corrected by adding the decrease in fluorescence intensity caused by dilution with DMSO, and the average value of the three replicates for each point was plotted against concentration of small molecule delivered and fit to a modified Stern–Volmer function as described by Charlier and Plapp. Binding affinity (K D) values were obtained […] from the fitting routine. All curve-fitting analysis was performed in GraphPad Prism 8.0.

[2] = system: OSM-induced pSTAT3 in T47D human breast cancer cells; experiment: pSTAT3 ELISA in T47D cells treated with OSM ± SMI; assay type: cell-based; conditions: T47D, 30 min; for Inhibition of OSM-induced pSTAT3 via ELISA: SMI 10 μM, OSM 10 ng/mL
Description: (§1) To test the effect of SMIs in vitro, each SMI was incubated with OSM for a period of 1 h at 37 °C, and T47D and MDA-MB-231 human breast cancer cell lines were subsequently treated with OSM (10 ng/mL) and/or SMI-10 (10 μM) analogs for 30 min and measured for pSTAT3 levels via ELISA. The results of these assays are presented graphically in Figure and, for T47D cells, in Table as a percentage of reduction from +OSM alone. For phospho-STAT3 (pSTAT3) ELISAs, T47D MDA-MB-231, and MCF-7 cells were seeded in 12- or 24-well plates at 70–75% confluency and allowed to adhere overnight, after which cells were serum-starved with serum-free RPMI-1640 for 4 h. SMIs (10 μM in DMSO or serially diluted to specified concentrations from a 100 mM stock in DMSO) and human recombinant OSM (10 ng/mL; PeproTech; #300–10T-10UG) were incubated in serum-free RPMI-1640 medium for 1 h. After incubation, the SMI-10 analogs or SMI-10B13 and OSM were added to the serum-starved cells for 30 min. Immediately afterward, the cells were lysed using 1x PathScan Sandwich ELISA Lysis Buffer (Cell Signaling Technology; #7018S), collected, and stored at −20 °C. Lysates were analyzed for pSTAT3 levels using either the PathScan Phospho-STAT3 (Tyr705) Sandwich ELISA Antibody Pair kit (Cell Signaling Technology; #7146) or Human/Mouse Phospho-STAT3 (Y705) DuoSet IC ELISA (R&D Systems; DYC4607B), according to manufacture’s protocol. pSTAT3 expression was measured with absorbance at 450 nm and quantified by comparison relative to OSM-induced pSTAT3 levels. To calculate an IC50 for SMI-10B13, a standard curve was generated as described in the DuoSet IC ELISA datasheet to determine the concentration of pSTAT3.

[3] = system: OSM-induced pSTAT3 in MDA-MB-231 human breast cancer cells; experiment: pSTAT3 ELISA in MDA-MB-231 cells treated with OSM ± SMI; assay type: cell-based; conditions: SMI 10 μM, OSM 10 ng/mL, 30 min
Description: as §1, with “2 High-throughput virtual screening identifies three novel compounds capable of interacting with site III of OSM. […] (F) Structure of parent SMI-10. Data are presented as mean ± SD relative to + OSM treatment, analyzed by one-way ANOVA with Tukey’s posttest *p < 0.05, **p < 0.01. To test” for “To test”

[4] = system: OSM-mediated signaling (pSTAT3, pAKT, pJNK, pERK) in T47D cells; experiment: Immunoblot of OSM-mediated signaling in T47D cells; assay type: cell-based, human; conditions: SMI 10 μM, OSM 10 ng/mL, 30 min
Description: For immunoblot analysis, T47D breast cancer cells were treated and collected in the same manner as described above for the ELISA preparation. After lysate collection, samples were run on a 10% SDS-PAGE gel and transferred to a nitrocellulose membrane via semidry transfer. Blots were rinsed with DI H2O and allowed to completely dry at room temperature before blocking with LiCor Intercept PBS Blocking Buffer (LiCor, Lincoln, NE; Cat# 927-90001) for 1 h. After blocking, primary antibodies (1:1000) suspended in blocking buffer supplemented with 0.1% Tween were added, shaken at room temperature for 1 h, and stored at 4 °C overnight. Membranes were then washed 6 times for 5 minutes each with 1X PBS supplemented with 0.5% Tween while shaking at room temperature, and secondary antibodies (1:15,000) were applied and incubated for 1 h. Afterward, membranes were washed as previously described above and imaged at 700 nm using the LiCor Odyssey CLx Imaging System. Quantification of immunoblots was performed using the LiCor Image Studio software, normalizing to β-Actin, and calculating relative fold change compared to nontreated samples. Antibodies used included phospho-STAT3 (Y705) (Cell Signaling Technology, Danvers, MA; cat. no. 9145), phospho-AKT (S473) (Cell Signaling Technology, Danvers, MA; cat. no. 4060), phospho-JNK ([…]/[…]) (Cell Signaling Technology, Danvers, MA; cat. no. 4668), phospho-ERK (T202/Y204) (Cell Signaling Technology, Danvers, MA; cat. no. 9101), β-Actin (Cell Signaling Technology; cat. no. 3700), and donkey antirabbit IRDye 800CW (LiCor, Lincoln, NE; Cat# 925-32213).

[5] = SMI 10 μM + OSM 10 ng/mL, ELISA, relative to +OSM, no-treatment blank subtracted

Row | SMILES | Kd [1] [µM] | Relative pSTAT3 Levels (Table 1, SMI-10A-10J) [2, 5] [%] | Inhibition of OSM-induced pSTAT3 via ELISA [2] | Inhibition of OSM-induced pSTAT3 via ELISA [3] | Inhibition of OSM-mediated signaling cascades by immunoblot (words) [4] | Relative pSTAT3 Levels (Table 2, SMI-10B analogs) [2, 5] [%] | Inhibition of OSM-mediated signaling cascades by immunoblot (words) ([4]; listed as 10B8)
1 | O=C(/C=C/c1cc(-c2ccc3c(c2)OCO3)c(-c2ccc3c(c2)OCO3)o1)c1ccccc1 [SMI-10C] | 32.5 ± 3.4 | 11.9 | capable of inhibiting OSM-induced pSTAT3 | capable of inhibiting OSM-induced pSTAT3 | capable of inhibiting multiple cascades; also recorded: significant reductions, near nontreated levels |  | 
2 | O=[N+]([O-])c1c(/C=N/Nc2ccccc2)oc(-c2ccc3c(c2)OCO3)c1-c1ccc2c(c1)OCO2 [SMI-10] |  |  |  | effective inhibitors of OSM |  |  | 
3 | c1ccc(CNCc2cc(-c3ccc4c(c3)OCO4)c(-c3ccc4c(c3)OCO4)o2)cc1 [SMI-10F, N-Benzyl-1-(4,5-bis(benzo[d][1,3]dioxol-5-yl)furan-2-yl)methanamine] | 16.8 ± 4.1 | 10.1 | capable of inhibiting OSM-induced pSTAT3 | capable of inhibiting OSM-induced pSTAT3 | capable of inhibiting multiple cascades; also recorded: significant reductions, near nontreated levels |  | 
4 | C(=N\Nc1ccccc1)/c1cc(-c2ccc3c(c2)OCO3)c(-c2ccc3c(c2)OCO3)o1 [SMI-10E, (E)-1-((4,5-Bis(benzo[d][1,3]dioxol-5-yl)furan-2-yl)methylene)-2-phenylhydrazine] | 21.2 ± 2.7 | 10.2 | capable of inhibiting OSM-induced pSTAT3 | capable of inhibiting OSM-induced pSTAT3 | capable of inhibiting multiple cascades; also recorded: significant reductions, near nontreated levels |  | 
5 | O=C(/C=C/c1ccccc1)c1cc(-c2ccc3c(c2)OCO3)c(-c2ccc3c(c2)OCO3)o1 [SMI-10G, (E)-1-(4,5-Bis(benzo[d][1,3]dioxol-5-yl)furan-2-yl)-3-phenylprop-2-en-1-one] | 21.9 ± 3.5 | 8.8 | capable of inhibiting OSM-induced pSTAT3 | capable of inhibiting OSM-induced pSTAT3 | capable of inhibiting multiple cascades; also recorded: significant reductions, near nontreated levels |  | 
6 | CCOC(=O)/C=C/c1cc(-c2ccc3c(c2)OCO3)c(-c2ccc3c(c2)OCO3)o1 [SMI-10D, Ethyl (E)-3-(4,5-Bis(benzo[d][1,3]dioxol-5-yl)furan-2-yl)acrylate] | 20.9 ± 2.4 | 9.0 | capable of inhibiting OSM-induced pSTAT3 | capable of inhibiting OSM-induced pSTAT3 | capable of inhibiting multiple cascades; also recorded: significant reductions, near nontreated levels |  | 
7 | O=C(O)/C=C/c1cc(-c2ccccc2)c(-c2ccc3c(c2)OCO3)o1 [SMI-10B8, (E)-3-(5-(Benzo[d][1,3]dioxol-5-yl)-4-phenylfuran-2-yl)acrylic Acid] | 7.2 ± 0.8 |  |  |  | most effective | 81.66 | better at inhibiting pSTAT3, pAKT, pJNK, and pERK signaling
